Assay [1] deals with E. coli. Format: cell-based, E. coli (Top10 Strain). The settings on record: median MIC; microbroth dilution, 1:2 serial dilution 18.2 to 1.8x10-2 μM, 4 × 10^6 CFU/mL, 1 h 37°C in wash buffer pH 7.4, then TSB overnight (18-24 h), OD600; triplicate per plate; mixture: each peptide at the reported concentration. On the procedure:
(§1) Supplemental Information for Trevellin et al.
(§2) Peptide design and preparation […]
(§3) synthesized by GenScript (Piscataway, NJ) at >95% purity determined by HPLC and dissolved in DI water. Concentrations were measured by triplicate tryptophan absorbance readings at 280 nm (ε=5700 M–1cm–1, l=1 cm) using a ThermoScientific NanoDrop 2000 (Waltham, MA). Buforin II (BF2) included an F10W mutation used in many previous studies1-5 to allow for concentration measurements.
(§4) Bacteria included E. coli (Top10 Strain, Invitrogen/ThermoFisher) containing a plasmid for ampicillin resistance (Novagen) and/or B. subtilis (ATCC #6051). Bacterial growth was performed in TSB (trypticase soy broth) prepared at 3% w/v (30 g of media in 1 L) from BD Difco unless otherwise noted. Overnight cultures were picked from petri dishes or frozen stock and grown for 14-16 hours at 37 °C in TSB with shaking. E. coli overnight cultures were incubated with 25 μg/mL ampicillin. The overnight cultures were then diluted 1:100 in 25 mL TSB and incubated at 37 °C with shaking for 2.5 h. The culture was pelleted via centrifugation at 1500×g for 10 min at room temperature and resuspended in sterile cold wash buffer (10 mM sodium phosphate buffer and 10 mM sodium chloride, pH 7.4). These resuspended bacteria were then used for radial diffusion, microbroth dilution, and propidium iodide assays. […]
(§5) Microbroth dilution assay
(§6) Microbroth dilution assays were used to determine the minimum inhibitory concentration (MIC) of each peptide for E. coli and B. subtilis (ATCC #6051). A 1:2 serial dilution was prepared for a peptide across the top row of a 96-well plate. 100 μL of bacterial suspension (4 × 10^6 CFU/mL, diluted in sterile wash buffer, 10 mM sodium phosphate buffer and 10 mM sodium chloride, pH 7.4) and 10 μL of peptide were mixed to each well in subsequent rows of the plate. The 11 effective peptide concentrations ranged from 18.2 μM to 1.8x10-2 μM, with DI water used as a control, and each concentration was tested in triplicate per plate. After the bacteria and peptide mixtures were incubated in plates at 37°C for 1 hour, 100 μL of 6% w/v TSB was added to each well. For wells containing E. coli, ampicillin was added at a final concentration of 25 µg/ml. The plate was then incubated overnight (18-24 h) at 37°C. After incubation, OD600nm were measured using the SpectraMax M3 microplate reader (Molecular Devices). […]
(§7) relative permeability = F5/F0
(§8) Each peptide was tested with bacteria grown from at least three distinct overnight […]
(§9) The MTS assay is a colorimetric viability assay for mammalian cells. HEK 293 cells (ATCC CRL-1573) were grown in complete growth medium (EMEM, 10% fetal bovine serum, 1% penicillin-streptomycin). Cells were cultured in a T-75 maintenance flask, fed with fresh media every 1-2 days, and passaged approximately every 5-7 days once cells reached 70-90% confluence. During passaging, HEK 293 cells were plated in a 96-well plate at 20,000 cells/well and incubated for 4-6 hours (37 °C, 95% humidity, 5% CO2). Each column of cells (8 replicates) was then incubated overnight with 18.2 µM peptide or a control. After incubation, media was aspirated and refreshed for each well, […]
In general terms: In broth dilution the organism is exposed to a series of concentrations in liquid medium.

For assay [2], the system named is B. subtilis. Format: cell-based, B. subtilis (ATCC #6051). The settings on record: 1 h, pH 7.4. As for the experimental part: as §1, §2, §3, §4, §5, §6, §7, §8, §9

≈ marks a conversion by molar mass, not a printed value.

As for `CC[C@H](C)[C@H](NC(=O)[C@H](CCCNC(=N)N)NC(=O)[C@@H](NC(=O)[C@H](CCCCN)NC(=O)[C@H](CCCCN)NC(=O)[C@H](CC(N)=O)NC(=O)[C@H](CC(=O)O)NC(=O)[C@H](CCCNC(=N)N)NC(=O)[C@H](C)N)[C@@H](C)O)C(=O)N[C@@H](Cc1c[nH]c2ccccc12)C(=O)N1CCC[C@H]1C(=O)N[C@@H](CCCNC(=N)N)C(=O)N[C@@H](Cc1c[nH]cn1)C(=O)N[C@@H](CC(C)C)C(=O)N[C@@H](CCC(N)=O)C(=O)N[C@@H](CC(C)C)C(=O)N[C@@H](C)C(=O)N[C@H](C(=O)N[C@@H](CCCNC(=N)N)C(=O)N[C@@H](CC(N)=O)C(=O)N[C@@H](C)C(=O)N[C@H](C(=O)N[C@@H](CCCNC(=N)N)C(=O)N[C@@H](CO)C(=O)N[C@@H](CO)C(=O)N[C@@H](CCCNC(=N)N)C(=O)N[C@@H](C)C(=O)NCC(=O)N[C@@H](CC(C)C)C(=O)N[C@@H](CCC(N)=O)C(=O)N[C@@H](Cc1c[nH]c2ccccc12)C(=O)N1CCC[C@H]1C(=O)N[C@H](C(=O)NCC(=O)N[C@@H](CCCNC(=N)N)C(=O)N[C@H](C(=O)N[C@@H](Cc1c[nH]cn1)C(=O)N[C@@H](CCCNC(=N)N)C(=O)N[C@@H](CC(C)C)C(=O)N[C@@H](CC(C)C)C(=O)N[C@@H](CCCNC(=N)N)C(=O)N[C@@H](CCCCN)C(=O)O)C(C)C)C(C)C)[C@@H](C)O)C(C)C` [DesHDAP1-A-BF2 (DAB)], the “MIC against E. coli” value in assay [1] was found to be 1.1 µM (≈ 5.5 µg/mL). Further, the “MIC against B. subtilis” value in assay [2] amounted to 4.6 µM (≈ 23 µg/mL).

(Values after publication PMC11571015, “Hybrids of Membrane-Translocating Antimicrobial Peptides Show Enhanced Activity through Membrane Permeabilization” (ACS Medicinal Chemistry Letters, 2024).)
